{"source": "patent US10934346B2", "about": "“Modified T cell comprising a polynucleotide encoding an inducible stimulating molecule comprising MyD88, CD40 and FKBP12” (priority 2014, dated 2021)", "key": {"Capan-1-GFP tumor cells": {"tested_on": "Capan-1-GFP tumor cells", "assay": "Coculture of CAR/iMC T cells with Capan-1-GFP tumor cells", "conditions": "10 nM rimiducid, PSCA.ζ CAR and iMC T cells, 7 days", "quoted_text": "FIG. 2C) Non-transduced and PSCA.ζ CAR T cells modified with either FKBP or iMC were cocultured with Capan-1-GFP tumor cells at a 1:1 T cell to tumor cell ratio with and without 10 nM rimiducid. Tumor cell and T cell frequency were assessed after 7 days by flow cytometry. Tumor cell frequency was assessed by flow cytometry by measuring CD3^−GFP^+ tumor cells by SSC/GFP gating. Enrichment of T cells coexpressing iMC and CAR were assessed in coculture assays by flow cytometry by measuring CD19-PE and anti-CAR-APC frequency, respectively. FIG. 2D) T cells were subsequently assessed for CD25 expression and measured for T cell proliferation (FIG. 2E) using flow cytometry and cell enumeration.\nFIG. 12B) Non-transduced T cells and T cells transduced with FKBP^+PSCA.ζ, FKBP^+PSCA.28.ζ) or iMC^+PSCA.ζ were cocultured with Capan-1-GFP tumor cells at a 1:1 effector:target ratio for 7 days and analyzed for residual tumor cells (CD3^−GFP^+) by flow cytometry.\nCoculture experiment. […] After 7 days, all residual cells were collected by trypsinization, counted and stained with CD3, CD19 and Fc-specific antibodies and analyzed by flow cytometry. […]"}, "[1]": {"tested_on": "JNK, Akt, RelA, ERK and p38 MAPK", "assay": "Phosphorylation of downstream signaling molecules (Milliplex MAP assay, immunoblotting)", "assay_type": "cell-based, human", "conditions": "10 nM rimiducid, iMC T cells", "method": "Immunoblotting. Primary human T cells transduced with either SFG-FKBP-2A-ΔCD19 or SFG-iMC-2A-ΔCD19 (4×10^6 per point) were cultured for the indicated time points in a 37° C. water bath with either 10 nM rimiducid, 250 nM each PMA and ionomycin, or media alone. Media as removed by aspiration after centrifugation at 6000 rpm for 2 min at 4° C. Cytoplasmic extracts were prepared by lysis in 100 μl radioimmuno-precipitation assay buffer (50 mM Tris, 150 mM NaCl, 1% NP40, 2 mM EDTA, 0.1% SDS, 0.25% sodium deoxycholate) containing 1×MS-SAFE (Roche). Lysates were incubated on ice for 10 min and cytoplasmic fractions were cleared by centrifugation at 11,000 rpm for 20 min at 4° C. […] Bound Abs were detected by HRP-conjugated goat-anti-rabbit IgG Ab (Pierce), followed by ECL (Pierce) and detection on a Gel Logic imaging system (Carestream). […]\nPhosphorylated epitopes were detected in Assay Buffer 2 (MILLIPLEX MAP kit) with antibodies specific for p-RelA(S536), p-Akt(S473), p-p38(T180/Y182), p-JNK(T183/Y185), p-ERK1/2(T202/Y204) (custom MILLIPLEX Magnetic Bead MAPMATE kit; Millipore) or GAPDH as a control for total protein content. Fold increase in phosphorylation was calculated by net MFI of rimiducid treatment at a given time point divided by the net MFI of the corresponding non-stimulated time point. […]"}, "Capan-1 tumor": {"tested_on": "Capan-1 tumor", "assay": "Capan-1 tumor xenograft in NSG mice with T cell bioluminescence imaging", "assay_type": "in vivo", "method": "FIG. 3A) Shorn mice were engrafted with Capan-1 tumor cells and treated with PSCA.ζ CAR T cells cotransduced with control vector or iMC, or non-transduced T cells, and injected i.v. on days 7 and 14. Exogenous IL-2 was given i.p. until day 21 and then withdrawn. All mice received 5 mg/kg rimiducid i.p. twice per week (biw). Tumor size was measured by calipers (FIG. 3B) and survival assessed over a 100-day period (FIG. 3C). FIG. 3D) to measure in vivo CAR T cell persistence and expansion, NSG mice were used. Mice were injected s.c. with Capan-1 tumor cells and then treated with non-transduced (NT) or FKBP and PSCA.ζ-modified T cells or iMC and PSCA.ζ-modified T cells. Mice treated with iMC-enabled T cells received 2.5 mg/kg rimiducid once (qw), twice weekly (biw) or saline only via i.p. injection. FIG. 3E) Subcutaneous tumor size was measured by calipers over a 30 day period.\nFIG. 3F) In vivo bioluminescence imaging was performed on mice treated with iMC-transduced T cells receiving saline only, or with systemic rimiducid administration. […]\nIn vivo studies. […] Tumors were measured by calipers and tumor size calculated. […] Photon emission was analyzed by constant region-of-interest (ROI) drawn over the tumor region and the signal measured as total counts as previously validated^10. As above, efficacy was assessed by measuring tumors using calipers. […]"}}, "data": [{"smiles": "CC[C@H](C(=O)N1CCCC[C@H]1C(=O)O[C@H](CCc1ccc(OC)c(OC)c1)c1cccc(OCC(=O)NCCNC(=O)COc2cccc([C@@H](CCc3ccc(OC)c(OC)c3)OC(=O)[C@@H]3CCCCN3C(=O)[C@@H](CC)c3cc(OC)c(OC)c(OC)c3)c2)c1)c1cc(OC)c(OC)c(OC)c1", "note": "(relative stereo) [rimiducid, 2-Piperidinecarboxylic acid, 1-[(2S)-1-oxo-2-(3,4,5-trimethoxyphenyl)butyl]-, 1,2-ethanediylbis [imino(2-oxo-2,1-ethanediyl)oxy-3,1-phenylene[(1R)-3-(3,4-Dimethoxyphenyl)propylidene]] ester, [2S-[1(R*),2R*[S*[S*[1(R*),2R*]]]]]-(9Cl)]", "values": [{"measurement": "Capan-1-GFP tumor cell elimination", "setting": "Capan-1-GFP tumor cells", "value": "further enhanced Capan-1-GFP elimination"}, {"measurement": "onset of signaling after exposure", "setting": "[1]", "value": "≤ 15", "unit": "min"}, {"measurement": "phosphorylation of signaling pathways", "setting": "[1]", "value": "each of these signaling pathways show increased phosphorylation in T cells, with MAPK and JNK showing the greatest rimiducid-dependent activation"}, {"measurement": "tumor control", "setting": "Capan-1 tumor; rimiducid 2.5 mg/kg once or twice weekly, iMC and PSCA.ζ T cells", "value": "enabled enhanced tumor control"}, {"measurement": "T cell bioluminescence (BLI)", "setting": "Capan-1 tumor; systemically and at the subcutaneous tumor site", "value": "dramatic increase in T cell BLI"}]}]}
